According to publication PMC10794144, “A novel antibiotic class targeting the lipopolysaccharide transporter” (Nature, 2024):
In brackets after ≈: the same amount, converted by molar mass. Marks after values point to notes of the source that are not given here.

Key:
[1] = tested on: A. baumannii; experiment: MIC, broth microdilution in CAMHB supplemented with human serum, read at 100% growth inhibition; format: cell-based, Acinetobacter baumannii; conditions: for MIC: read-out: MIC
Description: MIC determinations were performed using the broth microdilution method and in line with CLSI guidelines M07 and M100 (refs. [37],[38]). Bacterial inocula were prepared by diluting a 0.5 McFarland suspension in CAMHB or lysogeny broth (LB) specifically for A. baylyi isolates. […] MIC values of all of the tested antibiotics were read as the lowest compound concentration inhibiting bacterial growth by naked eye or beyond which the OD600 ceased to decrease.

[2] = tested on: A. baumannii; experiment: Agar dilution MIC, Mueller–Hinton agar with 20% human serum; format: cell-based; conditions: Acinetobacter baumannii
Description: Molten Mueller–Hinton agar (19 ml) supplemented with 20% human serum was added to 1 ml of compound at 20× the final concentration, poured immediately into Petri dishes (100 mm diameter) and gently mixed. Then, 2–3 colonies from agar plates were inoculated into CAMHB and incubated overnight under shaking (150 rpm). […] The agar plates were incubated aerobically at 35 ± 2 °C.

[3] = tested on: A. baumannii; experiment: Bacterial phenotypic fingerprint profiling; format: cell-based, Acinetobacter baumannii; conditions: random forest model
Description: Sample preparation and analysis was conducted as previously described[26] for A. baumannii, with the generated and analysed dataset consisting of three independent experiments, n = 3, as the only modification to the protocol.
For the random forest analysis data proximity analysis from 4x and 8x LOED are pooled and the number of datapoints are reduced by down sampling to be equal for all reference conditions the maximal projection of the analysis. b, In the right panel an out-of-bag validation of the random forest classification model is indicated for the reference compounds. […] The degree of frequency of matching prediction correspond to the length of the individual bar segment, where a longer segment represents a higher similarity. […] Source Data

[4] = Distribution coefficient logD7.4; format: physicochemical; conditions: pH 7.4
[5] = Aqueous solubility; format: physicochemical; conditions: pH 1–9

SMILES: CN1C(=O)[C@H](CCCCN)NC(=O)[C@H](CCCN)NCc2cccnc2Sc2cccc(-c3ccc(C(=O)O)cc3)c2CNC(=O)[C@@H]1Cc1c[nH]c2ccccc12 [zosurabalpin]
- MIC ([1]; Acinetobacter baumannii, isolate 1729353, 20% HS): 0.25 µg/mL (≈ 0.316 µM)
- MIC ([1]; Acinetobacter baumannii, isolate 1729358, 20% HS): 0.25 µg/mL (≈ 0.316 µM)
- MIC ([1]; Acinetobacter baumannii, isolate 1729362, 20% HS): 1 µg/mL (≈ 1.26 µM)
- MIC ([1]; Acinetobacter baumannii, isolate 1729379, 20% HS): 1 µg/mL (≈ 1.26 µM)
- MIC ([1]; Acinetobacter baumannii, isolate 1864609, 20% HS): 0.06 µg/mL (≈ 0.0759 µM)
- MIC ([1]; Acinetobacter baumannii, isolate 1864833, 20% HS): 0.5 µg/mL (≈ 0.632 µM)
- MIC ([1]; Acinetobacter baumannii, isolate 1865057, 20% HS): 0.25 µg/mL (≈ 0.316 µM)
- MIC ([1]; Acinetobacter baumannii, isolate 1865083, 20% HS): 0.5 µg/mL (≈ 0.632 µM)
- MIC ([1]; Acinetobacter baumannii, isolate 1865084, 20% HS): 0.5 µg/mL (≈ 0.632 µM)
- MIC ([1]; Acinetobacter baumannii, isolate 1865085, 20% HS): 0.5 µg/mL (≈ 0.632 µM)
- MIC ([1]; Acinetobacter baumannii, isolate 1865086, 20% HS): 0.5 µg/mL (≈ 0.632 µM)
- MIC ([1]; Acinetobacter baumannii, isolate 1865266, 20% HS): 1 µg/mL (≈ 1.26 µM)
- MIC ([1]; Acinetobacter baumannii, isolate 1865269, 20% HS): 0.25 µg/mL (≈ 0.316 µM)
- MIC ([1]; Acinetobacter baumannii, isolate 1865273, 20% HS): 0.06 µg/mL (≈ 0.0759 µM)
- MIC ([1]; Acinetobacter baumannii, isolate 1865274, 20% HS): 0.25 µg/mL (≈ 0.316 µM)
- MIC ([1]; Acinetobacter baumannii, isolate 1865386, 20% HS): 0.125 µg/mL (≈ 0.158 µM)
- MIC ([1]; Acinetobacter baumannii, isolate 1865387, 20% HS): 0.125 µg/mL (≈ 0.158 µM)
- MIC ([1]; Acinetobacter baumannii, isolate 1865494, 20% HS): 0.06 µg/mL (≈ 0.0759 µM)
- MIC ([1]; Acinetobacter baumannii, isolate 1865714, 20% HS): 0.25 µg/mL (≈ 0.316 µM)
- MIC ([1]; Acinetobacter baumannii, isolate 1866281, 20% HS): 0.125 µg/mL (≈ 0.158 µM)
- MIC ([1]; Acinetobacter baumannii, isolate 1866282, 20% HS): 0.06 µg/mL (≈ 0.0759 µM)
- MIC ([1]; Acinetobacter baumannii, isolate 1866283, 20% HS): 0.03 µg/mL (≈ 0.0379 µM)
- MIC ([1]; Acinetobacter baumannii, isolate 1866370, 20% HS): 0.25 µg/mL (≈ 0.316 µM)
- MIC ([1]; Acinetobacter baumannii, isolate 1866376, 20% HS): 0.25 µg/mL (≈ 0.316 µM)
- MIC ([1]; Acinetobacter baumannii, isolate 1868315, 20% HS): 0.5 µg/mL (≈ 0.632 µM)
- MIC ([1]; Acinetobacter baumannii, isolate 1869068, 20% HS): 1 µg/mL (≈ 1.26 µM)
- MIC ([1]; Acinetobacter baumannii, isolate 1869084, 20% HS): 4 µg/mL (≈ 5.06 µM)
- MIC ([1]; Acinetobacter baumannii, isolate 1869085, 20% HS): 1 µg/mL (≈ 1.26 µM)
- MIC ([1]; Acinetobacter baumannii, isolate 1869086, 20% HS): 1 µg/mL (≈ 1.26 µM)
- MIC ([1]; Acinetobacter baumannii, isolate 1869087, 20% HS): 1 µg/mL (≈ 1.26 µM)
- MIC ([1]; Acinetobacter baumannii, isolate 1869088, 20% HS): 0.5 µg/mL (≈ 0.632 µM)
- MIC ([1]; Acinetobacter baumannii, isolate 1869089, 20% HS): 0.25 µg/mL (≈ 0.316 µM)
- MIC ([1]; Acinetobacter baumannii, isolate 1869090, 20% HS): 0.25 µg/mL (≈ 0.316 µM)
- MIC ([1]; Acinetobacter baumannii, isolate 1869091, 20% HS): 0.25 µg/mL (≈ 0.316 µM)
- MIC ([1]; Acinetobacter baumannii, isolate 1869093, 20% HS): 0.25 µg/mL (≈ 0.316 µM)
- MIC ([1]; Acinetobacter baumannii, isolate 1869173, 20% HS): 0.25 µg/mL (≈ 0.316 µM)
- MIC ([1]; Acinetobacter baumannii, isolate 1870044, 20% HS): 0.03 µg/mL (≈ 0.0379 µM)
- MIC ([1]; Acinetobacter baumannii, isolate 1870131, 20% HS): 1 µg/mL (≈ 1.26 µM)
- MIC ([1]; Acinetobacter baumannii, isolate 1870152, 20% HS): 0.25 µg/mL (≈ 0.316 µM)
- MIC ([1]; Acinetobacter baumannii, isolate 1870171, 20% HS): 0.5 µg/mL (≈ 0.632 µM)
- MIC ([1]; Acinetobacter baumannii, isolate 1871948, 20% HS): 1 µg/mL (≈ 1.26 µM)
- MIC ([1]; Acinetobacter baumannii, isolate 1872001, 20% HS): 0.25 µg/mL (≈ 0.316 µM)
- MIC ([1]; Acinetobacter baumannii, isolate 1872360, 20% HS): 4 µg/mL (≈ 5.06 µM)
- MIC ([1]; Acinetobacter baumannii, isolate 1887389, 20% HS): 0.06 µg/mL (≈ 0.0759 µM)
- MIC ([1]; Acinetobacter baumannii, isolate 1887397, 20% HS): 0.06 µg/mL (≈ 0.0759 µM)
- MIC ([1]; Acinetobacter baumannii, isolate 1887497, 20% HS): 0.06 µg/mL (≈ 0.0759 µM)
- MIC ([1]; Acinetobacter baumannii, isolate 1887498, 20% HS): 0.06 µg/mL (≈ 0.0759 µM)
- MIC ([1]; Acinetobacter baumannii, isolate 1897312, 20% HS): 0.03 µg/mL (≈ 0.0379 µM)
- MIC ([1]; Acinetobacter baumannii, isolate 1897314, 20% HS): 0.25 µg/mL (≈ 0.316 µM)
- MIC ([1]; Acinetobacter baumannii, isolate 1897317, 20% HS): 0.25 µg/mL (≈ 0.316 µM)
- MIC ([1]; Acinetobacter baumannii, isolate 1914727, 20% HS): 0.5 µg/mL (≈ 0.632 µM)
- MIC ([1]; Acinetobacter baumannii, isolate 1914733, 20% HS): 0.06 µg/mL (≈ 0.0759 µM)
- MIC ([1]; Acinetobacter baumannii, isolate 1930837, 20% HS): 0.06 µg/mL (≈ 0.0759 µM)
- MIC ([1]; Acinetobacter baumannii, isolate 1930840, 20% HS): 0.125 µg/mL (≈ 0.158 µM)
- MIC ([1]; Acinetobacter baumannii, mutations in adeRS): 1 to 8 µg/mL (≈ 1.26 to 10.1 µM)
- MIC90 ([1]; Acinetobacter baumannii, 129 clinical isolates, CAMHB + 20% HS, n = 1): 1 µg/mL
- Fold MIC increase ([1]; AdeR A91V vs parental): >4 - 32
- Fold MIC increase ([1]; AdeS D128E vs parental): 2
- Fold MIC increase ([1]; AdeS G160C vs parental): 4
- Fold MIC increase ([1]; AdeS G318S vs parental): 8
- Fold MIC increase ([1]; AdeS L197F vs parental): 4
- Fold MIC increase ([1]; AdeS R108S vs parental): 4
- Fold MIC increase ([1]; AdeS R152K vs parental): 4
- Fold MIC increase ([1]; AdeS T66S vs parental): 4
- Fold MIC increase ([1]; LptF (G326_E327)del vs parental): 64 - 128 ^a
- Fold MIC increase ([1]; LptF (I319_K320)N vs parental): >256
- Fold MIC increase ([1]; LptF (K320)del vs parental): >256
- Fold MIC increase ([1]; LptF (K320)dup vs parental): 256
- Fold MIC increase ([1]; LptF (V314_L315)del vs parental): 128
- Fold MIC increase ([1]; LptF A318E vs parental): 32
- Fold MIC increase ([1]; LptF E58G vs parental, CAMHB + 20% HS): 8
- Fold MIC increase ([1]; LptF E58K vs parental): >256
- Fold MIC increase ([1]; LptF E249K vs parental): 32 - 256 ^a
- Fold MIC increase ([1]; LptF I317L vs parental): 32 - 64
- Fold MIC increase ([1]; LptF I317N vs parental): >256
- Fold MIC increase ([1]; LptF I317S vs parental): 256
- Fold MIC increase ([1]; LptF I317T vs parental): 32
- Fold MIC increase ([1]; LptF I323K vs parental): 64 - 128 ^a
- Fold MIC increase ([1]; LptF I323R vs parental): 4 - 256 ^a
- Fold MIC increase ([1]; LptF K320E vs parental): 256
- Fold MIC increase ([1]; LptF K320N vs parental): 64
- Fold MIC increase ([1]; LptF K320Q vs parental): 32
- Fold MIC increase ([1]; LptF K320T vs parental): 16
- Fold MIC increase ([1]; LptF L62H vs parental): 64 - 256 ^a
- Fold MIC increase ([1]; LptF R322C vs parental): 32 - 128 ^a
- Fold MIC increase ([1]; LptF R322G vs parental): 8 - 16 ^a
- Fold MIC increase ([1]; LptF R322L vs parental): 32 - 64 ^a
- Fold MIC increase ([1]; LptF R322S vs parental): 16
- Fold MIC increase ([1]; LptF T121K vs parental): 8
- Fold MIC increase ([1]; LptF W271R vs parental): 4
- Fold MIC increase ([1]; LptF W271S vs parental): 16
- Fold MIC increase ([1]; LptG G40D vs parental): 8
- Fold MIC increase ([1]; LptG L36Q vs parental): 32
- Fold MIC increase ([1]; LpxM IS66 vs parental): 32
- Fold MIC increase ([1]; LpxM K285N vs parental): 4
- Fold MIC increase ([1]; LpxM L44stop vs parental): 32
- Fold MIC increase ([1]; LpxM W78stop vs parental): 32
- Fold MIC increase ([1]; adeS ISAba1 vs parental): 4 - 32 ^a
- Fold MIC increase ([1]; deletion of AGTGTGGAGTA 66nt upstream of adeR vs parental): 8
- Fold MIC increase ([1]; lpxM ISAba1 vs parental): 32 - 64 ^a
- MIC ([2]; ACC00445): 0.25 µg/mL (≈ 0.316 µM)
- MIC ([2]; ACC00535): 0.12 µg/mL (≈ 0.152 µM)
- MIC ([2]; ACC01073): 1 µg/mL (≈ 1.26 µM)
- MIC ([2]; ACC01077): 0.25 µg/mL (≈ 0.316 µM)
- MIC ([2]; ACC01085/AR0307): 0.25 µg/mL (≈ 0.316 µM)
- MIC ([2]; ATCCBAA747, ATCC BAA-747): 0.12 µg/mL (≈ 0.152 µM)
- MIC ([2]; ROB08706): 1 µg/mL (≈ 1.26 µM)
- MIC ([2]; ROB08708): 0.12 µg/mL (≈ 0.152 µM)
- Similarity towards RO7202110 [3]: > 70%
- logD7.4 [4]: –2.46
- aqueous solubility [5]: > 100 mg/mL
